Data taken from PubChem BioAssay AID248 (DTP/NCI, 2004).
Values joined by “and” are separate entries in the source; they are usually repeats but may differ in a detail not shown here. Equal values may be shown once. Inconclusive results and toxic doses are left out. No stated cut-off is given here; in the data, active means T/C of 150% or more; inactive means T/C below 125%.

System: L1210 leukemia ip in BDF1 mice, survival T/C
Test: NCI In Vivo Anticancer Drug Screen. Data for tumor model L1210 Leukemia (intraperitoneal) in B6D2F1 (BDF1) mice
Conditions: endpoint: mean survival time, higher = longer survival
How it was run: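 Tumor was transplanted into mice, which were then dosed with test compound or vehicle alone. Survival was recorded for each group, and the treated figure was expressed relative to the control figure.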

[1] = dose: 50.0 mg/kg/injection, schedule: Q01DX001 (ip), vehicle: saline
[2] = dose: 100.0 mg/kg/injection, schedule: Q01DX001 (ip), vehicle: saline
[3] = dose: 200.0 mg/kg/injection, schedule: Q01DX001 (ip), vehicle: saline
[4] = dose: 400.0 mg/kg/injection, schedule: Q01DX001 (ip), vehicle: saline
[5] = dose: 100.0 mg/kg/injection, schedule: Q04DX002 (ip), vehicle: saline with Tween-80
[6] = dose: 100.0 mg/kg/injection, schedule: Q04DX003 (ip), vehicle: saline
[7] = dose: 200.0 mg/kg/injection, schedule: Q04DX003 (ip), vehicle: saline
[8] = dose: 100.0 mg/kg/injection, schedule: Q04DX003 (ip), vehicle: saline with Tween-80
[9] = dose: 100.0 mg/kg/injection, schedule: Q01DX009 (ip), vehicle: Klucel (hydroxypropylcellulose) (HPC)
[10] = dose: 200.0 mg/kg/injection, schedule: Q01DX009 (ip), vehicle: Klucel (hydroxypropylcellulose) (HPC)
[11] = dose: 400.0 mg/kg/injection, schedule: Q01DX009 (ip), vehicle: Klucel (hydroxypropylcellulose) (HPC)
[12] = dose: 75.0 mg/kg/injection, schedule: Q04DX003 (ip), vehicle: saline
[13] = dose: 100.0 mg/kg/injection, schedule: Q01DX001 (ip), vehicle: Klucel (hydroxypropylcellulose) (HPC)
[14] = dose: 200.0 mg/kg/injection, schedule: Q01DX001 (ip), vehicle: Klucel (hydroxypropylcellulose) (HPC)
[15] = dose: 400.0 mg/kg/injection, schedule: Q01DX001 (ip), vehicle: Klucel (hydroxypropylcellulose) (HPC)
[16] = dose: 100.0 mg/kg/injection, schedule: Q04DX003 (ip), vehicle: Klucel (hydroxypropylcellulose) (HPC)
[17] = dose: 200.0 mg/kg/injection, schedule: Q04DX003 (ip), vehicle: Klucel (hydroxypropylcellulose) (HPC)
[18] = dose: 400.0 mg/kg/injection, schedule: Q04DX003 (ip), vehicle: Klucel (hydroxypropylcellulose) (HPC)
[19] = dose: 25.0 mg/kg/injection, schedule: Q04DX003 (ip), vehicle: saline
[20] = dose: 50.0 mg/kg/injection, schedule: Q04DX003 (ip), vehicle: saline

Measured: T/C

C=C1C(=O)O[C@@H]2/C=C(\C)CC/C=C(/C)CC[C@@H]12
inactive: [1] 101 % of control | [2] 86 % of control | [3] 93 % of control | [4] 86 % of control

Cn1c(=O)c2n[se]nc2n(C)c1=O
inactive: dose: 3.12 mg/kg/injection, schedule: Q01DX009 (ip), vehicle: Klucel (hydroxypropylcellulose) (HPC) 91 % of control | dose: 3.12 mg/kg/injection, schedule: Q04DX002 (ip), vehicle: Klucel (hydroxypropylcellulose) (HPC) 102 % of control | dose: 6.25 mg/kg/injection, schedule: Q01DX009 (ip), vehicle: Klucel (hydroxypropylcellulose) (HPC) 94 % of control | dose: 6.25 mg/kg/injection, schedule: Q04DX002 (ip), vehicle: Klucel (hydroxypropylcellulose) (HPC) 105 % of control | dose: 12.5 mg/kg/injection, schedule: Q04DX002 (ip), vehicle: Klucel (hydroxypropylcellulose) (HPC) 108 % of control and 111 % of control | dose: 25.0 mg/kg/injection, schedule: Q04DX002 (ip), vehicle: Klucel (hydroxypropylcellulose) (HPC) 108 % of control

CN(C)Cc1cc(Cl)cc(CN(C)C)c1O
inactive: [5] 104 % of control | [6] 99 % of control | [7] 104 % of control

O=C(CC(O)(C(F)(F)F)C(F)(F)F)c1cccc(S(=O)(=O)F)c1
inactive: [8] 95 % of control | dose: 200.0 mg/kg/injection, schedule: Q04DX003 (ip), vehicle: saline with Tween-80 100 % of control

CC(C)Cc1ccc(OC(=O)Nc2ccc(Cl)cc2)cc1
inactive: dose: 25.0 mg/kg/injection, schedule: Q04DX003 (ip), vehicle: saline with Tween-80 95 % of control | dose: 50.0 mg/kg/injection, schedule: Q04DX003 (ip), vehicle: saline with Tween-80 95 % of control | [8] 95 % of control

CC(=O)CCC(C#N)c1ccccc1 (stereo unspecified)
inactive: dose: 25.0 mg/kg/injection, schedule: Q04DX002 (ip), vehicle: saline 104 % of control | dose: 50.0 mg/kg/injection, schedule: Q04DX002 (ip), vehicle: saline 107 % of control | dose: 100.0 mg/kg/injection, schedule: Q04DX002 (ip), vehicle: saline 93 % of control and 111 % of control

CCCCS(=O)(=O)N1CCCC1
inactive: [5] 101 % of control | dose: 200.0 mg/kg/injection, schedule: Q04DX002 (ip), vehicle: saline with Tween-80 101 % of control | dose: 400.0 mg/kg/injection, schedule: Q04DX002 (ip), vehicle: saline with Tween-80 101 % of control

O=C(O)c1ccccc1C(=O)c1ccc(Cl)cc1
inactive: [9] 100 % of control | [10] 86 % of control | [11] 100 % of control

CCN(C(=S)c1ccccc1)c1ccc(C(=O)OC)cc1
inactive: [12] 100 % of control | [13] 100 % of control | dose: 150.0 mg/kg/injection, schedule: Q04DX003 (ip), vehicle: saline 102 % of control | [14] 104 % of control | dose: 300.0 mg/kg/injection, schedule: Q04DX003 (ip), vehicle: saline 97 % of control | [15] 100 % of control

NC(Cc1ccccc1)c1ccc2oc3ccccc3c2c1 (stereo unspecified)
inactive: [13] 96 % of control | [14] 100 % of control | [15] 103 % of control

O=C/C(=C/c1ccccc1)c1ccccc1
inactive: [9] 98 % of control | [16] 107 % of control | [10] 101 % of control | [17] 98 % of control | [11] 95 % of control | [18] 102 % of control

CC(=O)Nc1cc(C)cc(C)c1
inactive: dose: 50.0 mg/kg/injection, schedule: Q01DX001 (ip), vehicle: carboxymethylcellulose (CMC) 105 % of control | dose: 100.0 mg/kg/injection, schedule: Q01DX001 (ip), vehicle: carboxymethylcellulose (CMC) 111 % of control | dose: 200.0 mg/kg/injection, schedule: Q01DX001 (ip), vehicle: carboxymethylcellulose (CMC) 111 % of control | dose: 400.0 mg/kg/injection, schedule: Q01DX001 (ip), vehicle: carboxymethylcellulose (CMC) 105 % of control

CCCCCCCCCCCCCCCC[N+]1(C)CCSCC1
inactive: dose: 0.78 mg/kg/injection, schedule: Q01DX009 (ip), vehicle: saline 104 % of control | dose: 1.56 mg/kg/injection, schedule: Q01DX009 (ip), vehicle: saline 111 % of control | dose: 3.13 mg/kg/injection, schedule: Q01DX009 (ip), vehicle: saline 114 % of control | dose: 6.25 mg/kg/injection, schedule: Q01DX009 (ip), vehicle: saline 104 % of control

CN(C)CCSCC(OC(=O)c1ccccc1)c1ccccc1 (stereo unspecified)
inactive: [8] 94 % of control

ClC1=C(Cl)[C@@]2(Cl)[C@H]3[C@H]4C[C@H]([C@@H]5O[C@H]45)[C@H]3[C@@]1(Cl)C2(Cl)Cl
inactive: dose: 1.0 mg/kg/injection, schedule: Q01DX009 (ip), vehicle: acetone 102 % of control | dose: 2.0 mg/kg/injection, schedule: Q01DX009 (ip), vehicle: acetone 93 % of control | dose: 4.0 mg/kg/injection, schedule: Q01DX009 (ip), vehicle: acetone 96 % of control | dose: 8.0 mg/kg/injection, schedule: Q01DX009 (ip), vehicle: acetone 86 % of control | dose: 25.0 mg/kg/injection, schedule: Q01DX001 (ip), vehicle: acetone 102 % of control

O=C(O)/C=C\C(=O)Nc1ccc(Cc2ccc(NC(=O)/C=C\C(=O)O)cc2)cc1
inactive: [2] 115 % of control | [16] 95 % of control | [3] 103 % of control | [17] 100 % of control | [4] 103 % of control | [18] 97 % of control

COC(=S)SCN(CSC(=S)OC)c1ccccc1Cl
inactive: dose: 50.0 mg/kg/injection, schedule: Q01DX001 (ip), vehicle: Klucel (hydroxypropylcellulose) (HPC) 111 % of control | [13] 101 % of control | [9] 109 % of control | [16] 103 % of control | [14] 103 % of control | [10] 109 % of control | [17] 95 % of control | [15] 98 % of control | [11] 109 % of control | [18] 103 % of control

O=C1C=CC(=O)N1c1ccc(N2C(=O)C=CC2=O)cc1
inactive: [19] 110 % of control | [20] 107 % of control | [6] 100 % of control

CC1([CH2][Hg][Cl])Cc2ccccc2O1 (stereo unspecified)
inactive: dose: 6.25 mg/kg/injection, schedule: Q04DX003 (ip), vehicle: saline with Tween-80 96 % of control

COc1ccc2c(c1)c1c(C)c3cnccc3c(C)c1n2CC1CO1 (stereo unspecified)
inactive: dose: 4.7 mg/kg/injection, schedule: Q01DX009 (ip), vehicle: saline with Tween-80 100 % of control | dose: 9.4 mg/kg/injection, schedule: Q01DX009 (ip), vehicle: saline with Tween-80 102 % of control | dose: 18.75 mg/kg/injection, schedule: Q04DX003 (ip), vehicle: saline with Tween-80 116 % of control | dose: 37.5 mg/kg/injection, schedule: Q04DX003 (ip), vehicle: saline 120 % of control | [12] 91 % of control

COc1cc(C(=O)CCC(=O)O)cc(OC)c1OC
inactive: [9] 96 % of control | [16] 96 % of control | [10] 104 % of control | [17] 102 % of control | [11] 102 % of control | [18] 93 % of control

O=C(/C(=C\c1ccccc1)N1CCOCC1)c1ccc(Cl)cc1
inactive: [8] 92 % of control

O=[N+]([O-])c1ccc(/C=N/Nc2ccnc3cc(Cl)ccc23)s1
inactive: [6] 96 % of control | [7] 96 % of control | dose: 400.0 mg/kg/injection, schedule: Q04DX003 (ip), vehicle: saline 96 % of control

O=C(CCCC(=O)N/N=C/c1ccc(C(=O)O)cc1)N/N=C\c1ccc(C(=O)O)cc1
inactive: [1] 104 % of control | [2] 102 % of control | [3] 98 % of control | [4] 98 % of control

CN(C)N=Nc1ccc([N+](=O)[O-])cc1C(=O)O
inactive: dose: 25.0 mg/kg/injection, schedule: Q04DX003 (ip), vehicle: other 93 % of control | dose: 50.0 mg/kg/injection, schedule: Q04DX003 (ip), vehicle: other 98 % of control | [9] 100 % of control | dose: 100.0 mg/kg/injection, schedule: Q04DX003 (ip), vehicle: other 98 % of control | [10] 103 % of control | dose: 200.0 mg/kg/injection, schedule: Q04DX003 (ip), vehicle: other 101 % of control | [11] 110 % of control | dose: 400.0 mg/kg/injection, schedule: Q04DX003 (ip), vehicle: other 98 % of control

Nc1ncnc2c1ncn2CCCCCCl
inactive: dose: 12.5 mg/kg/injection, schedule: Q04DX003 (ip), vehicle: saline 90 % of control | [19] 88 % of control | [20] 100 % of control
